Experimental data as given in US9175037B2, “Neuromedin U derivative” (Takeda Pharmaceutical Company Limited, priority 2009, dated 2015).
Non-standard residues stand in square brackets, D forms with d. No end group written: not given here. *: point of attachment. Acetyl(2-(piperazin-1-yl)) = O=C(CN1CCNCC1)*; PEG20k = methoxypolyethylene glycol 20k; NMeA = CN[C@@H](C)C(=O)O; βAla = NCCC(=O)O

Key:
Human FM3 = biological target: T1, Human FM3 (Homo sapiens, UniProt Q9HB89); assay: Receptor binding test: inhibition of 125I-NMU8 binding to FM3 membrane fraction; conditions: ratio of IC50 values when the affinity of NMU-8 was 1; 125I-NMU8 135 pM, CHO cell membrane fraction
T1 construct: expressed in transfected cells; host or cells: CHO (dhfr-) cells; membrane fraction
T1 sequence (Q9HB89 1-426): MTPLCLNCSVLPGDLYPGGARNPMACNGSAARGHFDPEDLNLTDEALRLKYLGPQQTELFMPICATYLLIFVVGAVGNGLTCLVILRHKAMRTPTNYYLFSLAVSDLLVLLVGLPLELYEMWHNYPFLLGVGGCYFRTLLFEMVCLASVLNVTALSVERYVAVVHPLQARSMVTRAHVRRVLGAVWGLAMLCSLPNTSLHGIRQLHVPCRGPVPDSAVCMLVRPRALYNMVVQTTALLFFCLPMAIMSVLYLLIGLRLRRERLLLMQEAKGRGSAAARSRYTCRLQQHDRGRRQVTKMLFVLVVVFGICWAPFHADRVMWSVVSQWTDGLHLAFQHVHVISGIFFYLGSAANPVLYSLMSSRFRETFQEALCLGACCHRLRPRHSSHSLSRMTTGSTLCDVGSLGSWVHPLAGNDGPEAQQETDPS

human TGR1 = biological target: T2, human TGR1 (Homo sapiens, UniProt Q9GZQ4); assay: Receptor binding test: inhibition of 125I-NMU8 binding to TGR1 membrane fraction; conditions: ratio of IC50 values when the affinity of NMU-8 was 1; 125I-NMU8 135 pM, CHO cell membrane fraction
T2 construct: expressed in transfected cells; host or cells: CHO (dhfr-) cells; membrane fraction
Method: CHO cells expressing Human FM3 (dhfr-) and CHO cells expressing human TGR1 (dhfr-) were cultured in 10% dialyzed FBS-containing MEMα (Invitrogen) medium under conditions of 5% carbon dioxide at 37° C. The adherent cells were detached with 10 mL of 0.1 mM EDTA-containing D-PBS (Invitrogen) and centrifuged for 10 minutes at 1,000 rpm at 4° C., thereby collecting the cells. 15 mL of homogenized buffer (10 mM NaHCO3 (pH 7.4), 5 mM EDTA, protease inhibitor=0.5 mM PMSF, 10 μg/mL Pepstatin A, 20 μg/mL Leupeptin, and 4 μg/mL E-64) was added to the obtained cell pellets, the cellular membrane was disrupted using a polytron homogenizer (Kinematica GmbH), centrifugation was conducted for 10 minutes at 1,000 g at 4° C., and the supernatant was collected. This process was further repeated twice, and ultracentrifugation was conducted for 60 minutes at 30,000 rpm at 4° C. Thereafter, 8 mL of homogenized buffer was added to the pellets and suspended homogeneously to prepare a membrane fraction. The protein concentration of the FM3-expressing CHO cellular membrane fraction was 1.2 mg/mL, and the protein concentration of the TGR1-expressing CHO cellular membrane fraction was 1.1 mg/mL.
The affinity of the NMU-8 derivatives and PEG conjugates shown in Table 2 (Table 2-1 and Table 2-2) with respect to each receptor was evaluated based on the inhibition of ^125I-NMU8 labeled ligand binding to the FM3 membrane fraction or to the TGR1 membrane fraction. Specifically, each of the NMU derivatives and PEG conjugates was dissolved in DMSO so as to prepare 2 μL of each dilution series of the NMU derivatives and PEG conjugates. Then, 100 μL of membrane fraction solutions diluted with a reaction buffer (50 mM HEPES, 1 mM EDTA protease inhibitor (0.5 mM PMSF), 10 μg/mL Pepstatin A, 20 μg/mL Leupeptin, and 4 μg/mL E-64, pH 6.8, 0.1% BSA) was added thereto, followed by further addition of 100 μL of the labeled ligand (final concentration: 135 pM) similarly diluted with the reaction buffer. The resulting product was thoroughly mixed, and then a reaction was carried out at 25° C. for 70 minutes. In accordance with the above-described procedure, the binding amount of the labeled ligand remaining in the filter was measured using a top count (PerkinElmer) by a liquid scintillation method, and the IC50 values were calculated using a Graph Pad Prism (FIG. 1 (FM3 receptor binding), FIG. 2 (TGR1 receptor binding), and Table 2).

[1] = Anorectic activity via peripheral administration; type: in vivo

T2 sequence (Q9GZQ4 whole entry): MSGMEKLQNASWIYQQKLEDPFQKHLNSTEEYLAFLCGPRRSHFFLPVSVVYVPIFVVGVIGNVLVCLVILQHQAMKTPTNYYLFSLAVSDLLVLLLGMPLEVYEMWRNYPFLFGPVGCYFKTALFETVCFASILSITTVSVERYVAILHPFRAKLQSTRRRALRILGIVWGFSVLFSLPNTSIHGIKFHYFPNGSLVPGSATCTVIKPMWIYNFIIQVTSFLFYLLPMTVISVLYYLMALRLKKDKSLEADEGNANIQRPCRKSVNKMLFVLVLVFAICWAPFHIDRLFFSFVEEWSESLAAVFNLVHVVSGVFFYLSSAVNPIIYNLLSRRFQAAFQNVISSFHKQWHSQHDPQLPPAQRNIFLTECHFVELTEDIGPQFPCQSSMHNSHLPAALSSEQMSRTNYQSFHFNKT

Row | Substance | FM3 Receptor Binding IC50 ratio (Human FM3) | TGR1 Receptor Binding IC50 ratio (human TGR1) | anorectic activity [1]
1 | 2-(piperazin-1-yl)acetyl-Arg3-NMU8 [Compound 10] | 0.27 | 0.66 | –
2 | NMU-23: Rat NMU consists of 23 amino acid residues, and is named NMU-23 (YKVNEYQGPVAPSGGFFLFRPRN; ends and bridges not checked; UniProt P12760 144-166, looked up) | – | – | induces an anorectic activity
3 | NpipAc0,Glu2,Ala6-NMU-8 [Compound 19] | 24000 | 25 | –
4 | NpipAc0,Glu2,NMeAla6-NMU-8 [Compound 21] | 6500 | 5.5 | –
5 | NpipAc0,Nal(2)2,NMeAla6-NMU-8 [Compound 22] | 99 | 1.7 | –
6 | NpipAc0,Phe1,Trp2,Ala6-NMU-8 [Compound 11] | 280 | 0.19 | –
7 | NpipAc0,Trp2,Ala6-NMU-8 [Compound 20] | 900 | 1.9 | –
8 | PEG20k-NH-β-Ala0,Glu2,NMeAla6-NMU-8 ({PEG20k-βAla}-YELFR[NMeA]RN-NH2) [Compound R] | >7300 | – | –
9 | PEG20k-NH-β-Ala0,NMeLeu3,NMeArg7-NMU-8 [Compound O] | 75 | 170 | –
10 | PEG20k-NH-β-Ala0,NMeTyr1,NMeLeu3,NMeArg5-NMU-8 [Compound P] | 83 | 240 | –
11 | PEG20k-NH-β-Ala0,Trp2,NMeAla6-NMU-8 [Compound Q] | 1600 | 47 | –
12 | PEG20k-NPipAc-Phe1, Trp2,Ala6-NMU-8 ({PEG20k-Acetyl(2-(piperazin-1-yl))}-FWLFRARN-NH2) [Compound K] | 11000 | – | –
13 | PEG20k-NpipAc-Glu2,Ala6-NMU8 ({PEG20k-Acetyl(2-(piperazin-1-yl))}-YELFRARN-NH2) [Compound S] | >10000 | – | –
14 | PEG20k-NpipAc-Glu2,NMeAla6-NMU8 ({PEG20k-Acetyl(2-(piperazin-1-yl))}-YELFR[NMeA]RN-NH2) [Compound U] | >10000 | – | –
15 | PEG20k-NpipAc-Trp2,Ala6-NMU8 ({PEG20k-Acetyl(2-(piperazin-1-yl))}-YWLFRARN-NH2) [Compound T] | >10000 | – | –
16 | PEG30k-NH-β-Ala0,Arg1-NMU-8 [Compound G] | 1.5 | 8.5 | –
17 | PEG30k-NH-β-Ala0,Arg3-NMU-8 [Compound C] | 1.7 | 2.6 | –
18 | PEG30k-NH-β-Ala0,Arg(Me) 7-NMU-8 [Compound N] | 290 | 63 | –
19 | PEG30k-NH-β-Ala0,Asp8-NMU-8 [Compound L] | 150 | 34 | –
20 | PEG30k-NH-β-Ala0,Cha3-NMU-8 [Compound F] | 1.3 | 11 | –

Row | Substance | FM3 Receptor Binding IC50 ratio (Human FM3) | TGR1 Receptor Binding IC50 ratio (human TGR1) | anorectic activity [1]
21 | PEG30k-NH-β-Ala0,Gln3-NMU-8 [Compound B] | 1.8 | 7.3 | –
22 | PEG30k-NH-β-Ala0,Gln5-NMU-8 [Compound A] | 160 | 9.6 | –
23 | PEG30k-NH-β-Ala0,NMeArg5-NMU-8 [Compound M] | 9.0 | 29 | –
24 | PEG30k-NH-β-Ala0,Pro1-NMU-8 [Compound H] | 9.4 | 21 | –
25 | PEG30k-NH-β-Ala0,Tyr2-NMU-8 [Compound E] | 8.1 | 1.7 | –
26 | PEG30k-NH-β-Ala0,Val3-NMU-8 [Compound D] | 5.3 | 2.2 | –
27 | Tyr-Phe-Leu-Phe-Arg-Pro-Arg-Asn-NH2 [NMU-8] | – | – | does not induce an anorectic activity
28 | β-Ala0,Arg1-NMU-8 [Compound 7] | 0.42 | 3.7 | –
29 | β-Ala0,Arg3-NMU-8 [Compound 3] | 0.07 | 0.38 | –
30 | β-Ala0,Arg(Me)7-NMU-8 [Compound 14] | 6.3 | 3.6 | –
31 | β-Ala0,Asp8-NMU-8 [Compound 12] | 2.4 | 2.0 | –
32 | β-Ala0,Cha3-NMU-8 [Compound 6] | 0.55 | 9.9 | –
33 | β-Ala0,Gln3-NMU-8 [Compound 2] | 0.31 | 3.9 | –
34 | β-Ala0,Gln5-NMU-8 [Compound 1] | 15 | 3.4 | –
35 | β-Ala0,Glu2,NMeAla6-NMU-8 [Compound 18] | 26000 | 31 | –
36 | β-Ala0,NMeArg5-NMU-8 [Compound 13] | 0.46 | 1.1 | –
37 | β-Ala0,NMeLeu3,NMeArg7-NMU-8 [Compound 15] | 8.6 | 19 | –
38 | β-Ala0,Pro1-NMU-8 [Compound 8] | 0.59 | 3.8 | –
39 | β-Ala0,Trp2,NMeAla6-NMU-8 [Compound 17] | 92 | 1.9 | –
40 | β-Ala0,Val3-NMU-8 [Compound 4] | 0.43 | 0.37 | –
